The text below walks through data of US20100256145A1, “USE OF KCNQ POTASSIUM CHANNEL OPENERS FOR REDUCING SYMPTOMS OF OR TREATING DISORDERS OR CONDITIONS WHEREIN THE DOPAMINERGIC SYSTEM IS DISRUPTED” (H. LUNDBECK A/S, priority 2007, published 2010).

Marks after values point to notes of the source that are not given here.

Assay [1] relates to d-amphetamine induced hyperactivity in rats. In words: Amphetamine-induced hyperactivity in the rat (amphetamine antagonism). In kind it is in vivo. Particulars: read-out: Amphetamine antagonism ED50 (mg/kg) ± std. dev. The text has this:
Subjects. Male Wistar rats (Taconic, Denmark) weighing 170-240 g are used. […] Eight rats are used at each dose level and in the parallel control group receiving the vehicle to the test compound plus d-amphetamine and the group receiving vehicle injections only.

Assay [2] relates to extracellular DA levels in the nucleus accumbens. In words: Microdialysis: amphetamine-evoked DA levels in the nucleus accumbens of freely moving rats. Type of assay: in vivo, rat. Particulars: for Normalised DA level in the nucleus accumbens: compound 8.1 mg/kg s.c., D-amphetamine 0.5 mg/kg s.c. 30 min later. How it is done:
Subjects. Male Sprague-Dawley rats (Charles River), initially weighing 275-300 g, are used.
Surgery. Animals are anaesthetized with hypnorm/dormicum (2 ml/kg s.c.) and intracerebral guide cannulas (CMA/12) are stereotaxically implanted, positioning the dialysis probe tip in the nucleus accumbens (co-ordinates: 1.7 mm anterior to bregma, −1.2 mm lateral to bregma, 8.0 mm ventral to the dura). Anchor screws and acrylic cement is applied for fixation of the guide cannula. The body temperature of the animals is maintained at 37° C. by means of a rectal probe and a heating plate. The rats are allowed to recover from surgery for 2 days, housed singly in cages.
Experimental procedure. On the day of the experiment, a microdialysis probe (CMA/12, 0.5 mm diameter, 2 mm length) is inserted through the guide cannula of the conscious animal. The probes are connected to a microinjection pump via a dual channel swivel which allowed the animals unrestricted movements. Perfusion of the microdialysis probe with filtered Ringer solution (145 mM NaCl, 3 mM KCl, 1 mM MgCl2, 1.2 mM CaCl2) is maintained for the duration of the experiment at a constant flow rate of 1 μL/min. After 180 min of stabilisation, the experiments are initiated. Dialysates are collected every 20 min. After the experiments the rats are sacrificed by decapitation, their brains removed, frozen and sliced for probe placement verification.
Administration of compounds. […] Thirty minutes later, D-amphetamine sulphate (0.5 mg/kg s.c.) is administered.
Analysis of dialysate. The concentration of DA in the dialysates is assessed by means of HPLC with electrochemical detection. The dialysate constituents are separated by reverse phase liquid chromatography (ODS 150×3 mm, […]). Mobile phase consists of 90 mM NaH2PO4, 50 mM sodium citrate, 367 mg/l sodium 1-octanesulfonic acid, 50 μM EDTA and 8% acetonitrile (pH 4.0) at a flow rate of 0.5 ml/min. Electrochemical detection of DA is accomplished using a coulometric detector; potential set at E1=−75 mV and E2=300 mV (guard cell at 350 mV) (Coulochem II, ESA). The dialysate levels of DA in the three dialyse samples preceding the administration of compound are averaged and used as baseline level of DA (100%)
Statistical analysis. The dialysate levels of DA in the three dialyse samples preceding the administration of compound are averaged and used as baseline level of DA (100%). Data are analysed using repeated measure analyses of variance followed by post hoc tests (Tukey test), when appropriate. *P<0.05 were considered significant.

For assay [3], the target named is T1, noradrenergic α1A receptor (UniProt P18130).
T1 sequence (P18130 1-466): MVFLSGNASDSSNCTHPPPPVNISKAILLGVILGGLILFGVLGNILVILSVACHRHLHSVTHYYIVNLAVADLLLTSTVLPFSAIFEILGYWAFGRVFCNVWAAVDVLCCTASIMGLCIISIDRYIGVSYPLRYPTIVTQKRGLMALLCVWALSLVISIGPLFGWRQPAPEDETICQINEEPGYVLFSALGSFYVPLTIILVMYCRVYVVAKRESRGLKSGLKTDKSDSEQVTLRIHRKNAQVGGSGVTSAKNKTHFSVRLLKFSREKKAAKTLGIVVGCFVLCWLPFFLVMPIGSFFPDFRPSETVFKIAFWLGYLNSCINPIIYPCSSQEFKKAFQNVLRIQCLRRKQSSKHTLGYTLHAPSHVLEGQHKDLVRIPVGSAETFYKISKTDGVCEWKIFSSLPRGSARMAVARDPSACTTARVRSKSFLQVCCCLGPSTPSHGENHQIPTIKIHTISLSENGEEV
As to the kind of experiment: 3H-Prazosin binding assay, receptor expressed in baby hamster kidney cells. The conditions noted are these: read-out: Ki, affinity towards noradrenergic α1A receptors.

The subject of assay [4] is social behaviours in the Mutual Resident Intruder rat test. As to the kind of experiment: Mutual Resident Intruder rat test. Particulars: for % of time Agonistic behaviour: sum of defensive and aggressive behaviour.
Experimental: Subjects. 5 week old male Wistar rats (Harlan, Germany) were used. The animals were housed in groups of four animals per cage and kept under a 12 h/12 h light dark rhythm (start of the dark phase at 2:00 p.m., CET), at 20° C. room temperature and 60% humidity. During the whole study, standard diet and tap water was provided ad libitum.
Experimental procedure. […] Therefore, half of the cage is the home territory of each animal. At test time, the wall is removed from the cage so that the animals can interact with each other for 15 minutes. Both animals are from the same test group. The cage is illuminated by dim red light. The test starts 1 hour after beginning of the dark phase. All animals are marked individually by means of black symbols on their back. Behaviour is registered by video. Each animal is tested once.
Analyses. In both the TE test and the MRI test, the portion of time (%) spent in non-social, friendly, defensive, aggressive or agonistic (sum of defensive and aggressive behaviour) behaviour was compared across the experimental groups against the relevant control group by means of Analysis of Variance (ANOVA) (one-factor).
Setting [5] is: 2 mg/kg s.c. 30 min before test.
Where [6] appears, read: 10 mg/kg s.c. 30 min before test.

Take `CCOC(=O)Nc1ccc(NCc2ccc(F)cc2)cc1N` [Compound 1, reference compound]: the ED50 in assay [1] turned out to be 2.3 mg/kg. The “Normalised DA level in the nucleus accumbens” value in assay [2] (Time 0 min (baseline sample)) was 96 ± 6 % of baseline; in assay [2] (Time 20 min) it was 160 ± 11 % of baseline; in assay [2] (Time 40 min), 241 ± 33 % of baseline; in assay [2] (Time 60 min), 221 ± 26* % of baseline; in assay [2] (Time 80 min) it was 217 ± 14* % of baseline; in assay [2] (Time 100 min) it was 173 ± 9 % of baseline. Also, the “Normalised DA level in the nucleus accumbens” value is recorded as 139 ± 9 % of baseline in assay [2] (Time 120 min), 120 ± 9 % of baseline in assay [2] (Time 140 min), 99 ± 6 % of baseline in assay [2] (Time −20 min (baseline sample)) and 105 ± 3 % of baseline in assay [2] (Time −40 min (baseline sample)). Besides, the “Effect on the basal extracellular DA level in the nucleus accumbens” value in assay [2] (without amphetamine, data not shown) is given as “None of the latter three compounds significantly affects the basal extracellular DA level”. The Ki in assay [3] was determined as 2000 nM. The results for the “% of time Aggressive behaviour” value in assay [4] (setting [5]) and in assay [4] (setting [6]) were 16.1 % of time and 4.2*** % of time, respectively. Besides, the “% of time Defensive behaviour” value is listed as 16.3 % of time in assay [4] (setting [5]) and 3.6*** % of time in assay [4] (setting [6]). Also, the “% of time Friendly behaviour” value in assay [4] (setting [5]) is on record as 3.4 % of time; in assay [4] (setting [6]), 4.9* % of time. The “% of time Non-social behaviour” value in assay [4] (setting [5]) is 64.2 % of time; in assay [4] (setting [6]), 87.3*** % of time. Also, the “% of time Agonistic behaviour” value is given as 32.4 % of time in assay [4] (setting [5]) and 7.8*** % of time in assay [4] (setting [6]).

As usually defined, the Ki is a dissociation constant, usually derived from enzyme kinetics or from competition with a known ligand.
